Key:
[1] = test system: isolated rat hearts with global ischemia and reperfusion; assay: Isolated working rat heart with global ischemia and reperfusion: coronary flow and contractility
From the text: Effects on Coronary Flow and Contractility of the Heart with Global Ischemia and Reperfusion: […]

isolated rat hearts = assay: Isolated working rat heart: coronary flow and contractility
From the text: As biological materials the isolated hearts of male Wistar rats were used which were purchased from our Laboratory Animal Science and Welfare (LASW). The heart function (coronary flow and contractility) was investigated on the “Isolated Working Heart” model as previously described (Itter G et al., Laboratory Animals (2005) 39; 178-193). The hearts were first perfused according to Langendorff's method with an oxygenated (95% O2, 5% CO2) noncirculating Krebs-Henseleit solution of the following compositions (mmol/L): NaCl, 118; KCl, 4.7; CaCl2, 2.5; MgSO4, 1.6; NaHCO3, 24.9; KH2PO4, 1.2; glucose, 5.5; Na-pyruvate, 2.0. A catheter placed into the pulmonary artery drained the coronary effluent perfusate that was collected for determination of coronary flow and venous PO2 measurements. The left atrium was cannulated by an incision of the left auricle. After a 15-minute equilibration period at a fixed perfusion pressure of 60 mmHg, the heart was switched into the working mode at a fixed filling pressure of 11 mmHg. Coronary flow (CF) and pressure signals (dP/dtmax) were sampled at 500 Hz, averaged every 2 seconds.
High rasburicase concentrations were tested in combination with different uric acid concentrations on isolated working rat hearts for their possible adverse cardiac effects caused by the generated hydrogenperoxide (H2O2).

[2] = addition of ascorbic acid 1 mM to Rasb 50 μg/mL + UA 30 mg/L
[3] = UA 15 mg/L (Rasb 50 μg/mL where present), 1 min before ischemia
[4] = UA 15 mg/L (Rasb 50 μg/mL where present), 5 min before ischemia
[5] = UA 15 mg/L (Rasb 50 μg/mL where present), Global Ischemia
[6] = UA 15 mg/L (Rasb 50 μg/mL where present), Reperf. 5 min after Ischemia
[7] = UA 15 mg/L (Rasb 50 μg/mL where present), Reperf. 10 min after Ischemia
[8] = UA 15 mg/L (Rasb 50 μg/mL where present), Reperf. 15 min after Ischemia
[9] = UA 30 mg/L (Rasb 50 μg/mL where present), 1 min before ischemia, Table 5
[10] = UA 30 mg/L (Rasb 50 μg/mL where present), 5 min before ischemia, Table 5
[11] = UA 30 mg/L (Rasb 50 μg/mL where present), Global Ischemia, Table 5
[12] = UA 30 mg/L (Rasb 50 μg/mL where present), Reperf. 5 min after Ischemia, Table 5
[13] = UA 30 mg/L (Rasb 50 μg/mL where present), Reperf. 10 min after Ischemia, Table 5
[14] = UA 30 mg/L (Rasb 50 μg/mL where present), Reperf. 15 min after Ischemia, Table 5

In the case of O=C1O[C@H]([C@@H](O)CO)C(O)=C1O [ascorbic acid, Ascorbic acid], the “contractility after ischemia/reperfusion (in words)” value [1, 2] is reported as “further improvement” and the “coronary flow after ischemia/reperfusion (in words)” value [1, 2] is reported as “normalization”.

In the case of O=c1[nH]c(=O)c2[nH]c(=O)[nH]c2[nH]1 [Uric Acid, Uric acid], the “contractility (dP/dtmax)” value (isolated rat hearts; male, Wistar, rat, 6 mg/L) is reported as 3867 ± 327 mmHg/s, the “coronary flow (CF)” value (isolated rat hearts; male, Wistar, rat, 6 mg/L) is reported as 13.51 ± 1.02 mL/min and the “contractility (dP/dtmax)” value [1, 3] is reported as 3608 ± 318 mmHg/s. The “coronary flow (CF)” value [1, 3] was 12.82 ± 0.75 mL/min, the “contractility (dP/dtmax)” value [1, 4] was 3600 ± 250 mmHg/s and the “coronary flow (CF)” value [1, 4] was 13.28 ± 0.7 mL/min. The “contractility (dP/dtmax)” value [1, 5] was 61 ± 1 mmHg/s, the “coronary flow (CF)” value [1, 5] was 0.38 ± 0.06 mL/min and the “contractility (dP/dtmax)” value [1, 6] was 1057 ± 496 mmHg/s. For the same molecule, the “coronary flow (CF)” value [1, 6] was 4.47 ± 1.69 mL/min, the “contractility (dP/dtmax)” value [1, 7] was 1284 ± 667 mmHg/s and the “coronary flow (CF)” value [1, 7] was 4.71 ± 1.86 mL/min. For the same molecule, the “contractility (dP/dtmax)” value [1, 8] was 1403 ± 736 mmHg/s, the “coronary flow (CF)” value [1, 8] was 4.73 ± 1.85 mL/min and the “contractility (dP/dtmax)” value [1, 9] was 4017 ± 437 mmHg/s. The “coronary flow (CF)” value [1, 9] was 13.11 ± 0.88 mL/min, the “contractility (dP/dtmax)” value [1, 10] was 4020 ± 350 mmHg/s and the “coronary flow (CF)” value [1, 10] was 13.33 ± 0.7 mL/min. For the same molecule, the “contractility (dP/dtmax)” value [1, 11] was 59 ± 2 mmHg/s, the “coronary flow (CF)” value [1, 11] was 0.31 ± 0.02 mL/min and the “contractility (dP/dtmax)” value [1, 12] was 2224 ± 418 mmHg/s. For the same molecule, the “coronary flow (CF)” value [1, 12] was 8.34 ± 1.88 mL/min, the “contractility (dP/dtmax)” value [1, 13] was 2898 ± 314 mmHg/s and the “coronary flow (CF)” value [1, 13] was 9.16 ± 1.29 mL/min. The “contractility (dP/dtmax)” value [1, 14] was 3192 ± 273 mmHg/s and the “coronary flow (CF)” value [1, 14] was 9.25 ± 0.63 mL/min.

For OO [H2O2, hydrogenperoxide], the “contractility (dP/dtmax)” value (isolated rat hearts; H2O2 10 μM, n = 4) was 4774 ± 185 mmHg/s, the “coronary flow (CF)” value (isolated rat hearts; H2O2 10 μM, n = 4) was 13.89 ± 0.55 mL/min and the “contractility (dP/dtmax)” value (isolated rat hearts; H2O2 30 μM, n = 4) was 4469 ± 167 mmHg/s. The “coronary flow (CF)” value (isolated rat hearts; H2O2 30 μM, n = 4) was 15.21 ± 1 mL/min, the “contractility (dP/dtmax)” value (isolated rat hearts; H2O2 100 μM, n = 4) was 4573 ± 268 mmHg/s and the “coronary flow (CF)” value (isolated rat hearts; H2O2 100 μM, n = 4) was 15.7 ± 1.3 mL/min. For the same molecule, the “contractility (dP/dtmax)” value (isolated rat hearts; H2O2 200 μM, n = 4) was 1698 ± 69 mmHg/s, the “coronary flow (CF)” value (isolated rat hearts; H2O2 200 μM, n = 4) was 10.42 ± 0.3 mL/min and the “effect on coronary flow and contractility (in words)” value (isolated rat hearts; concentrations higher than 100 μM H2O2) was “strongly reduced”.

B1: rasburicase (protein, listed as Aspergillus flavus)
chain: SAVKAARYGKDNVRVYKVHKDEKTGVQTVYEMTVCVLLEGEIETSYTKADNSVIVATDSIKNTIYITAKQNPVTPPELFGSILGTHFIEKYNHIHAAHVNIVCHRWTRMDIDGKPHPHSFIRDSEEKRNVQVDVVEGKGIDIKSSLSGLTVLKSTNSQFWGFLRDEYTTLKETWDRILSTDVDATWQWKNFSGLQEVRSHVPKFDATWATAREVTLKTFAEDNSASVQATMYKMAEQILARQQLIETVEYSLPNKHYFEIDLSWHKGLQNTGKNAEVFAPQSDPNGLIKCTVGRSSLKSKL
modifications: homotetramer
notes: recombinant urate oxidase enzyme from genetically modified Saccharomyces cerevisiae with Aspergillus flavus cDNA
In the case of B1, the “heart function (in words)” value ([1]; in the presence of uric acid, present prior and during ischemia/reperfusion) is reported as “even improved”, the “cardiodynamics after ischemia (in words)” value ([1]; ischemia/reperfusion experiments) is reported as “even improved” and the “recovery after ischemia/reperfusion (in words)” value ([1]; rasburicase 50 μg/mL in combination with uric acid 15 or 30 mg/L) is reported as “concentration-dependently improved”.
